Common to all, as to type: biochemical
The target in test [1] is T1, Human Factor XIIa (Homo sapiens, UniProt P00748).
T1 construct: Proteolytic cleavage of FXII to heavy and light chains of FXIIa dramatically increases catalytic activity; purchased Enzyme Research Laboratories
T1 sequence (P00748 373-615 limits assumed): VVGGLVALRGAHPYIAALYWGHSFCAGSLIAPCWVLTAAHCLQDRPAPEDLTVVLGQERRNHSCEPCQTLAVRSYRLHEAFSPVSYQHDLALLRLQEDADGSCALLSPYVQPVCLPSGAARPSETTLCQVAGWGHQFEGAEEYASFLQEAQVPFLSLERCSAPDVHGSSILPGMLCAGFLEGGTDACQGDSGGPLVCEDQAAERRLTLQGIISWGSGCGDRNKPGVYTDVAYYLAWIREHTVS
T1 sequence (P00748 20-372 partner limits assumed): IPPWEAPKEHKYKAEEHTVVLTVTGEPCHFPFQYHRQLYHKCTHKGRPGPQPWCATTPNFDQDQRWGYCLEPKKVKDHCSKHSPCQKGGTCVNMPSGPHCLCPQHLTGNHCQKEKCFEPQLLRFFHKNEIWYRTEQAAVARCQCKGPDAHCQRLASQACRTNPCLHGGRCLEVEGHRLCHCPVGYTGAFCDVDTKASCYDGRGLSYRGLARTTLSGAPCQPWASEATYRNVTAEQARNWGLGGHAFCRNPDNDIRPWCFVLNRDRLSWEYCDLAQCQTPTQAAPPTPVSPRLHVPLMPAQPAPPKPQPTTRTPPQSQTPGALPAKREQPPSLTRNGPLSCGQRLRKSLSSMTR
Nature of the test: Determination of FXIIa inhibition (fluorogenic substrate H-DPro-Phe-Arg-AFC, IC50 assay). As to conditions: substrate at Km concentration, 25° C.; category scale; read-out: Human FXII IC50 (nm). A digest of the protocol: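 Human FXIIa incubated at 25° C. with fluorogenic H-DPro-Phe-Arg-AFC at its Km concentration plus varying compound levels. Linear fluorescence increase over 5 min taken as % activity; IC50 is concentration halving uninhibited activity.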

For test [2], the target named is T2, Plasma Kallikrein (Homo sapiens, UniProt P03952).
T2 construct: FXIIa converts plasma prekallikrein (PK) to plasma kallikrein (PKa)
Nature of the test: Related protease inhibition: Plasma Kallikrein (fluorogenic substrate at Km). The following applies: class symbols per Table 18, read-out: IC50 (human PKal). A digest of the protocol: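 Read-out is the linear per-minute rise in fluorescence liberated from substrate, monitored for 5 min at 25° C and expressed as % activity. Substrate sat at Km, except for FXIa, which used 100 μM. IC50 values come from the concentration producing half-maximal inhibition.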

Test [3] concerns the target KLK1 (Homo sapiens, UniProt P06870). Nature of the test: Related protease inhibition: KLK1 (fluorogenic substrate at Km). As to conditions: class symbols per Table 18. On the procedure:
(§1) In vitro inhibition of related proteases was determined using an IC50 assay based on standard literature methods (see e.g. Shori et al., Biochem. Pharmacol., 1992, 43, 1209; Bouckaert et al., European Journal of Medicinal Chemistry 110 (2016) 181). Human serine protease enzyme Plasma Kallikrein, KLK1, FXa, Plasmin, Thrombin and Trypsin were assayed for enzymatic activity using an appropriate fluorogenic substrate at Km concentration, FXIa at fixed substrate concentration of 100 μM and various concentrations of the test compound. Protease activity was measured by monitoring the accumulation of liberated fluorescence from the substrate over 5 min at 25° C. The linear rate of fluorescence increase per minute was expressed as percentage (%) activity. IC50 values were calculated as the concentration of inhibitor giving 50% inhibition of the uninhibited enzyme activity (100%).

For test [4], the target named is FXa (Homo sapiens, UniProt P00742). Nature of the test: Related protease inhibition: FXa (fluorogenic substrate at Km). As to conditions: class symbols per Table 18. The procedure:
as §1

Test [5] concerns the target Thrombin (Homo sapiens, UniProt P00734). The experiment in a line: Related protease inhibition: Thrombin (fluorogenic substrate at Km). The following applies: class symbols per Table 18. On the procedure: as §1

Structures are written as SMILES.

As usually defined, the IC50 is the concentration that inhibits the measured activity by half.

Sequence of KLK1 (P06870 25-262): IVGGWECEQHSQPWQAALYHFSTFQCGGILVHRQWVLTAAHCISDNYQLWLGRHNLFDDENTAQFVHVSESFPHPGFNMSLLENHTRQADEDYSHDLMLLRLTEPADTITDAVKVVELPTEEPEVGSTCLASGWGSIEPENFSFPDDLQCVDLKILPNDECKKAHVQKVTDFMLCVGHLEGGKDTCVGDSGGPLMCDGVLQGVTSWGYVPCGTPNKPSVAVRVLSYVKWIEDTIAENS
Sequence of FXa (P00742 235-488 limits assumed): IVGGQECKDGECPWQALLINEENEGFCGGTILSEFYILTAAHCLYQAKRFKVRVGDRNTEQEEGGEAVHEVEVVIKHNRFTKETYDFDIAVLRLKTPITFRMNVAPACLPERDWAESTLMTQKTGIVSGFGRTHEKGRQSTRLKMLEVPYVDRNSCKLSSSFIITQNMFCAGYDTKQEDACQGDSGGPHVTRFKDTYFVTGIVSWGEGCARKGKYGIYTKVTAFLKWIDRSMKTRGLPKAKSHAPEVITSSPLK
Sequence of FXa (P00742 41-179 partner limits assumed): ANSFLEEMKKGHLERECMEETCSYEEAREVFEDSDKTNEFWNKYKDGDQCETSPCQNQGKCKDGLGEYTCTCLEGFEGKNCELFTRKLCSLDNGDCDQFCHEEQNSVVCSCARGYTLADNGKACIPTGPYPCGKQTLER
T2 sequence (P03952 391-638 limits assumed): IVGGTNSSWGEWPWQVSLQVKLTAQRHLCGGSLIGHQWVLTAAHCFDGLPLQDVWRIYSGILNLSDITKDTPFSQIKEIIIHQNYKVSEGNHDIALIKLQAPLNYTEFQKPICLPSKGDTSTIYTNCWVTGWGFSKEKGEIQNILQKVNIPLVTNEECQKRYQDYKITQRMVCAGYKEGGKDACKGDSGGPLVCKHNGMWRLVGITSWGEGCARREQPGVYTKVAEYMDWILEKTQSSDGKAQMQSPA
T2 sequence (P03952 20-390 partner limits assumed): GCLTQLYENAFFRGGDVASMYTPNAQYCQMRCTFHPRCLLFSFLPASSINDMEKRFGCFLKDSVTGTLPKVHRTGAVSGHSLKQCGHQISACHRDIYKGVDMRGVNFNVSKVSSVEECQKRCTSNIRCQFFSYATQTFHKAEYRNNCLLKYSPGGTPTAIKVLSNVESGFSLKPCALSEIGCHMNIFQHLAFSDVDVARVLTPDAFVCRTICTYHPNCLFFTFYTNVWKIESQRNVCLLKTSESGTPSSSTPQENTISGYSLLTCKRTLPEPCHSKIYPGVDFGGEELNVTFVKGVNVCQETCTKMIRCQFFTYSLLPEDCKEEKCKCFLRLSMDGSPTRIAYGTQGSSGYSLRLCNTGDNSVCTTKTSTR

Turning to `Cc1cc2c(NCC34CC(COc5ccn6ccnc6c5)(C3)C4)ccnc2[nH]1` [Example 1012, N-((3-((Imidazo[1,2-a]pyridin-7-yloxy)methyl)bicyclo[1.1.1]pentan-1-yl)methyl)-2-methyl-1H-pyrrolo[2,3-b]pyridin-4-amine], the IC50 is 1 to 3 µM in test [1]; greater than 100 µM in test [2]; greater than 40 µM in test [3]; 1 to 3 µM in test [4]; 1 to 3 µM in test [5].
Consider `Nc1nccc2c(NCC34CC(COc5ccn6ccnc6n5)(CO3)C4)cccc12` [Example 6614, N5-((4-((imidazo[1,2-a]pyrimidin-7-yloxy)methyl)-2-oxabicyclo[2.1.1]hexan-1-yl)methyl)isoquinoline-1,5-diamine], for which the 50% inhibitory concentration (IC50) in test [1] is 0.1 to 0.3 µM; in test [2], greater than 4 µM; in test [3], 3 to 10 µM; in test [4], greater than 40 µM.
On to `Clc1ccc(NCC23CC(COc4ccn5ccnc5c4)(CCO2)C3)cc1` [Example 10918, 4-chloro-N-((5-((imidazo[1,2-a]pyridin-7-yloxy)methyl)-2-oxabicyclo[3.1.1]heptan-1-yl)methyl)aniline], for which the IC50 was greater than 40 µM in test [2], greater than 100 µM in test [3] and greater than 40 µM in test [4].
In the case of `Nc1nccc2c(NCC34CC(COc5ccc6nccn6c5)(CCO3)C4)cccc12` [Example 10904, N5-((5-((imidazo[1,2-a]pyridin-6-yloxy)methyl)-2-oxabicyclo[3.1.1]heptan-1-yl)methyl)isoquinoline-1,5-diamine], the IC50 is 0.01 to 0.1 µM in test [1]; greater than 40 µM in test [2]; 3 to 10 µM in test [3]; greater than 40 µM in test [4]; 10 to 40 µM in test [5].
`Cn1ccc(OCC23CC(CNc4cccc5c(N)nccc45)(C2)C3)cc1=O` [Example 1019, 4-[[3-[[(1-aminoisoquinolin-5-yl)amino]methyl]-1-bicyclo[1.1.1]pentanyl]methoxy]-1-methylpyridin-2-one]: the IC50 is 0.3 to 1 µM in test [1]; greater than 40 µM in test [2]; 3 to 10 µM in test [3]; 10 to 40 µM in test [4]; 10 to 40 µM in test [5].
For `Cn1ccc(OCC23CN(C(=O)Oc4ccccc4)C(CNc4cccc5c(N)nccc45)(C2)C3)cc1=O` [Example 12008, phenyl 1-(((1-aminoisoquinolin-5-yl)amino)methyl)-4-(((1-methyl-2-oxo-1,2-dihydropyridin-4-yl)oxy)methyl)-2-azabicyclo[2.1.1]hexane-2-carboxylate], the IC50 in test [1] is 0.01 to 0.1 µM; in test [2], greater than 4 µM; in test [3], 1 to 3 µM; in test [4], greater than 40 µM.
On to `Cc1cn2ccc(OCC34CC(CNc5cccc6c(N)nccc56)(C3)C4)cc2n1` [Example 1006, N5-((3-(((2-Methylimidazo[1,2-a]pyridin-7-yl)oxy)methyl)bicyclo[1.1.1]pentan-1-yl)methyl)isoquinoline-1,5-diamine], for which the IC50 in test [1] was 0.1 to 0.3 µM; in test [2] it was greater than 40 µM; in test [3], 1 to 3 µM; in test [4], 1 to 3 µM; in test [5], 10 to 40 µM.
As to `Nc1nccc2c(NCC34CC(COc5ccc6nnc(C(F)F)n6n5)(CO3)C4)cccc12` [Example 6608, N5-((4-(((3-(difluoromethyl)-[1,2,4]triazolo[4,3-b]pyridazin-6-yl)oxy)methyl)-2-oxabicyclo[2.1.1]hexan-1-yl)methyl)isoquinoline-1,5-diamine], the IC50 in test [1] was 0.3 to 1 µM; in test [2], greater than 40 µM; in test [3] it was 3 to 10 µM; in test [4], greater than 40 µM; in test [5], greater than 40 µM.
`Nc1nccc2c(NCC34CC(COc5ccn6ccnc6c5)(CO3)C4)cccc12` [Example 6601, 5-N-[[4-(Imidazo[1,2-a]pyridin-7-yloxymethyl)-2-oxabicyclo[2.1.1]hexan-1-yl]methyl]isoquinoline-1,5-diamine]: the IC50 in test [1] is 0.01 to 0.1 µM; in test [2], greater than 40 µM; in test [3], 3 to 10 µM; in test [4], 10 to 40 µM; in test [5], 10 to 40 µM.
For `Cc1cc(OCC23COC(CNc4cccc5c(N)nccc45)(C2)C3)cn2ccnc12` [Example 6617, N5-((4-(((8-methylimidazo[1,2-a]pyridin-6-yl)oxy)methyl)-2-oxabicyclo[2.1.1]hexan-1-yl)methyl)isoquinoline-1,5-diamine], the IC50 in test [1] was 0.01 to 0.1 µM; in test [2], greater than 40 µM; in test [3], 3 to 10 µM; in test [4] it was 10 to 40 µM.
Take `Clc1cccc(NCC23CC(COc4ccn5ccnc5c4)(CCO2)C3)c1` [Example 10919, 3-chloro-N-((5-((imidazo[1,2-a]pyridin-7-yloxy)methyl)-2-oxabicyclo[3.1.1]heptan-1-yl)methyl)aniline]: the results for the IC50 in test [2], in test [3] and in test [4] were greater than 40 µM, greater than 100 µM and greater than 40 µM, respectively.
Regarding `Nc1nccc2c(NCC34CC(COc5ccc6nc(C(F)(F)F)cn6n5)(CO3)C4)cccc12` [Example 6615, N5-((4-(((2-(trifluoromethyl)imidazo[1,2-b]pyridazin-6-yl)oxy)methyl)-2-oxabicyclo[2.1.1]hexan-1-yl)methyl)isoquinoline-1,5-diamine], the IC50 in test [1] was 3 to 10 µM; in test [3], 3 to 10 µM; in test [4] it was greater than 40 µM.
As to `CN1Cc2ccc(OCC34CC(CNc5cccc6c(N)nccc56)(CO3)C4)cc2C1=O` [Example 2211, 6-((4-(((1-aminoisoquinolin-5-yl)amino)methyl)-2-oxabicyclo[2.1.1]hexan-1-yl)methoxy)-2-methylisoindolin-1-one], the IC50 in test [1] is 0.1 to 0.3 µM; in test [2], greater than 4 µM; in test [3] it was 1 to 3 µM; in test [4], greater than 40 µM.
The matching figures for `Cn1ccc(OCC23CC(CNc4cccc5c(N)nccc45)(CN2C(=O)OCc2ccccc2)C3)cc1=O` [Example 13001, benzyl 4-(((1-aminoisoquinolin-5-yl)amino)methyl)-1-(((1-methyl-2-oxo-1,2-dihydropyridin-4-yl)oxy)methyl)-2-azabicyclo[2.1.1]hexane-2-carboxylate]: 0.01 to 0.1 µM, greater than 40 µM, greater than 4 µM and greater than 4 µM.
Take `Cn1ccc(OCC23CNC(CNc4cccc5c(N)nccc45)(C2)C3)cc1=O` [Example 12007, 4-((1-(((1-aminoisoquinolin-5-yl)amino)methyl)-2-azabicyclo[2.1.1]hexan-4-yl)methoxy)-1-methylpyridin-2(1H)-one]: the IC50 was 0.01 to 0.1 µM in test [1], greater than 4 µM in test [2], 10 to 40 µM in test [3] and greater than 40 µM in test [4].
In the case of `Nc1nccc2c(NCC34CC(COc5ccn6cc(C(F)F)nc6c5)(CO3)C4)cccc12` [Example 6613, N5-((4-(((2-(difluoromethyl)imidazo[1,2-a]pyridin-7-yl)oxy)methyl)-2-oxabicyclo[2.1.1]hexan-1-yl)methyl)isoquinoline-1,5-diamine], the IC50 in test [1] lay in the range of 0.3 to 1 µM; in test [3] it was 3 to 10 µM; in test [4] it was 10 to 40 µM.
For the compound `CC(=O)N1CC2(COc3ccn(C)c(=O)c3)CC1(CNc1cccc3c(N)nccc13)C2` [Example 12009, 4-((2-acetyl-1-(((1-aminoisoquinolin-5-yl)amino)methyl)-2-azabicyclo[2.1.1]hexan-4-yl)methoxy)-1-methylpyridin-2(1H)-one], the IC50 was 0.01 to 0.1 µM in test [1], greater than 4 µM in test [2], 10 to 40 µM in test [3] and greater than 40 µM in test [4].
On to `Cc1cn2ccnc2cc1OCC12CCOC(CNc3cccc4c(N)nccc34)(C1)C2` [Example 10920, N5-((5-(((6-methylimidazo[1,2-a]pyridin-7-yl)oxy)methyl)-2-oxabicyclo[3.1.1]heptan-1-yl)methyl)isoquinoline-1,5-diamine], for which the half-maximal inhibitory concentration (IC50) in test [1] was 0.1 to 0.3 µM; in test [2], 3 to 10 µM; in test [3], 3 to 10 µM; in test [4], 10 to 40 µM.

For the origin of these results see patent publication US20240327412A1, “FACTOR XIIA INHIBITORS” (KALVISTA PHARMACEUTICALS LIMITED, priority 2021, published 2024).
